These results are taken from ChEMBL document CHEMBL1201862, “PubChem BioAssay data set” (2004).

Each structure is given as a SMILES string.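 48-hour exposure; five concentrations; linearly interpolated endpoints. GI50: concentration for 50% inhibition of growth.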 Activity calls are given as the source filed them. Rule as the data show it: active = GI50 up to about 1.1 µM and inactive = higher. Where only a bound is given, the exact number is not on record here.

Among the test systems are NCI-H226; OVCAR-8; SW-620; SK-MEL-5; M14; OVCAR-3; HOP-62; HCC 2998; 786-0; HCT-116; RPMI-8226; SF-295; BT-549; RXF 393; KM12; SK-MEL-28; SK-OV-3; A498; ACHN; Malme-3M.
What all share (assay): NCI-60 cell line screen, 48 h

As for `Cc1ccsc1/C=N/Nc1cc(C)c2ccccc2n1`, the GI50 in the assay with NCI-H226 was 16 µM (inactive); in the assay on OVCAR-8, 14.7 µM (inactive); with SW-620, 17.2 µM (inactive); in the assay with SK-MEL-5 it was 2.17 µM (inactive); with M14 it was 8.63 µM (inactive); in the assay on OVCAR-3 it was 3.94 µM (inactive). The GI50 in the assay on HOP-62 was 22.3 µM (inactive); in the assay with HCC 2998 it was 14 µM (inactive); in the assay with 786-0 it was 16.3 µM (inactive); in the assay with HCT-116, 12.1 µM (inactive); in the assay with RPMI-8226 it was 3.28 µM (inactive); with SF-295 it was 3.04 µM (inactive). Also, the GI50 in the assay with BT-549 was 21 µM (inactive); with RXF 393, 20.7 µM (inactive); in the assay with KM12, 15.6 µM (inactive); with SK-MEL-28, 14.6 µM (inactive); with SK-OV-3, 17.3 µM (inactive); in the assay on A498, 10.4 µM (inactive). The GI50 with ACHN is 12.9 µM (inactive).
For `COc1ccc(C2c3cc4c(cc3OC(N3CCOCC3)C2C)OCO4)cc1` (stereo not drawn), the GI50 in the assay on OVCAR-8 is 34.7 µM (inactive); with SW-620, 29.1 µM (inactive); in the assay on SK-MEL-5, 22.6 µM (inactive); in the assay on M14, 26.9 µM (inactive); in the assay on OVCAR-3, 20.8 µM (inactive); with HOP-62, 22.5 µM (inactive). Moreover, the GI50 in the assay with HCC 2998 is 22.4 µM (inactive); in the assay with 786-0, 23.8 µM (inactive); in the assay with HCT-116 it was 20.2 µM (inactive); in the assay with RPMI-8226, 15.3 µM (inactive); in the assay with SF-295 it was 15.1 µM (inactive); with BT-549, 20.3 µM (inactive). The GI50 was 19.1 µM (inactive) in the assay on RXF 393; 23.4 µM (inactive) in the assay with KM12; 28.6 µM (inactive) in the assay on SK-MEL-28; 6.03 µM (inactive) in the assay on A498; 21.4 µM (inactive) in the assay on ACHN; 7.38 µM (inactive) in the assay on Malme-3M.
With `CCN(C(=O)/C=C/c1ccco1)c1ccccc1`, the GI50 in the assay with NCI-H226, with OVCAR-8, with SW-620, with SK-MEL-5, in the assay with M14 and in the assay with OVCAR-3 was > 100 µM (inactive) throughout. The GI50 is > 100 µM (inactive) in the assay with HOP-62; > 100 µM (inactive) with HCC 2998; > 100 µM (inactive) in the assay on 786-0; > 100 µM (inactive) in the assay on HCT-116; 75.2 µM (inactive) with RPMI-8226; > 100 µM (inactive) with SF-295. The GI50 in the assay with BT-549, in the assay with RXF 393, with KM12, in the assay on SK-MEL-28, in the assay on SK-OV-3 and in the assay with A498 was > 100 µM (inactive) each time. Besides, the GI50 in the assay with ACHN was > 100 µM (inactive).
For the molecule `CN(C)CCCN1c2ccccc2Sc2cnccc21`, the GI50 with NCI-H226 is 83.2 µM (inactive); in the assay with OVCAR-8, > 100 µM (inactive); with SW-620, > 100 µM (inactive); in the assay on SK-MEL-5 it was 79.8 µM (inactive); in the assay on M14 it was 52.2 µM (inactive); in the assay on OVCAR-3 it was 34 µM (inactive). Moreover, the GI50 in the assay with HOP-62 was 41.6 µM (inactive); with 786-0 it was 77.1 µM (inactive); in the assay on HCT-116, 43.7 µM (inactive); with RPMI-8226, 79.1 µM (inactive); in the assay on SF-295, 35.1 µM (inactive); in the assay with BT-549, > 100 µM (inactive). Besides, the GI50 in the assay with RXF 393 was 83 µM (inactive); with KM12, > 100 µM (inactive); in the assay with SK-MEL-28 it was 39.1 µM (inactive); with SK-OV-3, > 100 µM (inactive); in the assay on A498 it was 31 µM (inactive); in the assay with ACHN it was 52.8 µM (inactive). The GI50 with Malme-3M is > 100 µM (inactive).
Regarding `FC(F)(F)c1nc2nc(Cl)c(Cl)nc2n1CCCN1CCOCC1`, the GI50 in the assay on NCI-H226 is > 100 µM (inactive); in the assay with OVCAR-8, 29.3 µM (inactive); in the assay with SW-620, 42.9 µM (inactive); with SK-MEL-5, 61.5 µM (inactive); with M14, 48.2 µM (inactive); in the assay on OVCAR-3 it was 64.3 µM (inactive). Moreover, the GI50 was > 100 µM (inactive) in the assay on HOP-62; > 100 µM (inactive) in the assay with 786-0; 41.9 µM (inactive) in the assay with HCT-116; 23.4 µM (inactive) with RPMI-8226; > 100 µM (inactive) with SF-295; 56 µM (inactive) in the assay on BT-549. Besides, the GI50 in the assay with RXF 393 is 25.4 µM (inactive); with KM12, > 100 µM (inactive); with SK-MEL-28, 33.7 µM (inactive); with SK-OV-3 it was > 100 µM (inactive); in the assay on A498 it was 97.5 µM (inactive); in the assay with ACHN, > 100 µM (inactive). Moreover, the GI50 in the assay with Malme-3M was 56 µM (inactive).
For `CN(C)c1ccc(/C=N/N=C2\C(=O)Nc3c(Cl)cc(Cl)cc32)cc1`, the GI50 in the assay on NCI-H226 was > 100 µM (inactive); with OVCAR-8, 93.1 µM (inactive); in the assay with SW-620, 35.6 µM (inactive); with SK-MEL-5 it was 41.2 µM (inactive); in the assay with M14, 45.9 µM (inactive); in the assay on OVCAR-3 it was 36.6 µM (inactive). The GI50 in the assay with HOP-62 was 39.7 µM (inactive); in the assay with HCC 2998, 64 µM (inactive); in the assay on 786-0, 45.9 µM (inactive); in the assay with HCT-116, 39 µM (inactive); with SF-295, 32.9 µM (inactive); in the assay with BT-549 it was 36.6 µM (inactive). In addition, the GI50 was 59.3 µM (inactive) in the assay on RXF 393; 10.1 µM (inactive) with KM12; 47.3 µM (inactive) with SK-MEL-28; > 100 µM (inactive) with SK-OV-3; 32.2 µM (inactive) with A498; 97.9 µM (inactive) with ACHN. In addition, in the assay on Malme-3M, the GI50 was 25.2 µM (inactive).
`CCOC(=O)C(=Cc1ccccc1Br)C(=O)OCC`: the GI50 with NCI-H226 is 3.51 µM (inactive); in the assay on OVCAR-8 it was 2.38 µM (inactive); in the assay with SW-620, 1.97 µM (inactive); in the assay with SK-MEL-5, 1.85 µM (inactive); in the assay on M14 it was 0.424 µM (active); in the assay with OVCAR-3, 2.07 µM (inactive). Also, the GI50 in the assay on HOP-62 is 2.37 µM (inactive); in the assay on HCC 2998, 2.78 µM (inactive); in the assay with 786-0 it was 3.05 µM (inactive); in the assay with HCT-116 it was 2.95 µM (inactive); with RPMI-8226, 2.23 µM (inactive); in the assay on SF-295, 3.26 µM (inactive). For the same molecule, the GI50 was 2.51 µM (inactive) in the assay on BT-549; 2.1 µM (inactive) in the assay on RXF 393; 1.62 µM (inactive) with KM12; 2.4 µM (inactive) with SK-MEL-28; 2.03 µM (inactive) in the assay with A498; 2.59 µM (inactive) with ACHN. Moreover, in the assay on Malme-3M, the GI50 is 3.48 µM (inactive).
Consider `COc1cc(NS(C)(=O)=O)ccc1NCc1c[nH]c2ccc3nc(C)ccc3c12`, for which the GI50 in the assay on NCI-H226 is 45.7 µM (inactive); in the assay with OVCAR-8, 50.1 µM (inactive); in the assay with SW-620, 30.2 µM (inactive); with SK-MEL-5, 42 µM (inactive); with M14 it was 56.1 µM (inactive); with OVCAR-3, 27.6 µM (inactive). In addition, the GI50 in the assay on HOP-62 is 55.5 µM (inactive); in the assay with 786-0, 30.4 µM (inactive); in the assay on HCT-116 it was 42.9 µM (inactive); in the assay with RPMI-8226 it was 17.1 µM (inactive); in the assay on SF-295, 48.8 µM (inactive); in the assay with BT-549, > 100 µM (inactive). For the same molecule, the GI50 is 22.5 µM (inactive) with RXF 393; 48.9 µM (inactive) with KM12; > 100 µM (inactive) with SK-MEL-28; 96.4 µM (inactive) with SK-OV-3; 20.3 µM (inactive) in the assay on A498; 33.9 µM (inactive) in the assay with ACHN. In addition, in the assay with Malme-3M, the GI50 was > 100 µM (inactive).
`Cc1ccc2c(ccc3[nH]cc(CNc4ccc(NS(C)(=O)=O)cc4)c32)n1`: the GI50 with NCI-H226 was 20.3 µM (inactive); with OVCAR-8, 25.7 µM (inactive); in the assay on SW-620, 31.2 µM (inactive); with SK-MEL-5, 18.6 µM (inactive); in the assay on M14, 17.6 µM (inactive); in the assay with OVCAR-3 it was 19.7 µM (inactive). Also, the GI50 in the assay on HOP-62 is 24.2 µM (inactive); in the assay on 786-0 it was 17.8 µM (inactive); with HCT-116 it was 18.7 µM (inactive); in the assay with RPMI-8226, 19.1 µM (inactive); with SF-295, 21.8 µM (inactive); in the assay on BT-549 it was 35.4 µM (inactive). Moreover, the GI50 is 9.14 µM (inactive) in the assay with RXF 393; 18.3 µM (inactive) in the assay on KM12; 23.4 µM (inactive) with SK-MEL-28; 27.7 µM (inactive) in the assay on SK-OV-3; 15.6 µM (inactive) in the assay with A498; 33.7 µM (inactive) in the assay with ACHN. In addition, the GI50 in the assay on Malme-3M is 18.5 µM (inactive).
In the case of `O=C(NCCCCNCCCNC(=O)c1ccccc1)c1ccccc1`, the GI50 in the assay with NCI-H226, in the assay on OVCAR-8, in the assay with SW-620, in the assay with SK-MEL-5, with M14 and with OVCAR-3 was > 100 µM (inactive) throughout. Moreover, the GI50 with HOP-62, in the assay on HCC 2998, in the assay with 786-0, in the assay on HCT-116, in the assay with RPMI-8226 and in the assay on SF-295 was > 100 µM (inactive) throughout. The GI50 in the assay with BT-549, in the assay on RXF 393, in the assay on KM12, in the assay with SK-MEL-28, in the assay on SK-OV-3 and in the assay with A498 was > 100 µM (inactive) in each case. For the same molecule, the GI50 with ACHN was > 100 µM (inactive).
With `O=S1(=O)C(c2ccccc2)=C(O)c2ccccc21`, the GI50 with NCI-H226, in the assay with OVCAR-8, in the assay on SW-620, with SK-MEL-5, in the assay with M14 and with OVCAR-3 was > 100 µM (inactive) in each case. Further, the GI50 in the assay on HOP-62, in the assay on HCC 2998, in the assay on 786-0, with HCT-116, in the assay on RPMI-8226 and in the assay with SF-295 was > 100 µM (inactive) each time. Moreover, the GI50 in the assay with BT-549 was > 100 µM (inactive); in the assay with RXF 393 it was 35.8 µM (inactive); in the assay on KM12 it was > 100 µM (inactive); with SK-MEL-28 it was > 100 µM (inactive); in the assay with A498 it was > 100 µM (inactive); in the assay with ACHN, > 100 µM (inactive). Also, the GI50 in the assay with Malme-3M is > 100 µM (inactive).
